Read-outs that look alike come from different tables or passages of the source.
Legend:
[1] = system: PC3 prostate cancer cell line; test: Antiproliferative cell assay (CellTiter-Glo), PC3; format: cell-based, human; details: 48 h exposure, read-out: IC50 against prostate cancer cell line PC3
Description: (§1) Cell Culture Materials. The 22Rv1, DU145, LNCaP and PC3 prostate cancer cell lines were obtained from American Type Culture Collection (ATCC, Rockville, Md.). The LNCaP-AR and Hi-Myc cell lines were a kind donation by Dr. C. Sawyers (David Geffen School of Medicine, UCLA, Los Angeles, Calif.). DU145, 22Rv1, LNCaP, LNCaP-AR, and PC3 cells were grown in RPMI 1640; Hi-Myc cells were grown in Isecove's Modified Dulbecco's Medium. All media contained 10% fetal bovine serum (FBS) in the presence of 100 U/mL penicillin and 0.1 g/L streptomycin. RWPE-1 prostate cells were grown in Defined Keratinocyte Serum Free Medium (DKSFM) containing epidermal growth factor (EGF), insulin and fibroblast growth factor (FGF). Cells were incubated at 37° C. with 95% air and 5% CO2. All cells were maintained below passage 20 and used in experiments during the linear phase of growth.
(§2) Proliferation was measured utilizing the CellTiter-Glo® Luminescent Cell Viability Assay (Technical Bulletin #288, Promega Corp., Madison, Wis.). When added to cells, the assay reagent produces luminescence in the presence of ATP from viable cells. Cells were plated in 96-well plates at a density of 10,000 cells/well and incubated for 24 hours. Test samples were solubilized in DMSO by sonication, filter sterilized and diluted with media to the desired treatment concentration. Cells were treated with 100 μLcontrol media, vehicle control (DMSO<0.2% of total) or test samples and incubated for 48 h drug exposure duration at 6.25, 12.5, 25, 50 and 100 μg/mL concentrations. At the end of 48 h, plates were equilibrated at room temperature for 30 min; 100 μL of the assay reagent was added to each well and cell-lysis was induced on an orbital shaker for 2 min. Plates were incubated at room temperature for 10 min to stabilize the luminescence signal and results were read on an Orion Microplate Luminometer (Bertholds Detection Systems, Pforzheim, Germany). All plates had control wells containing medium without cells to obtain a value for background luminescence. Data are expressed as percentage of untreated cells (i.e. treatment value-blank/vehicle value-blank), mean±SE for three replications.

[2] = system: 22Rv1 prostate cancer cell line; test: Antiproliferative cell assay (CellTiter-Glo), 22Rv1; format: cell-based, human; details: 48 h exposure, read-out: IC50 against prostate cancer cell line 22 Rv1
Description: as §1, §2

[3] = system: LNCaP prostate cancer cell line; test: Antiproliferative cell assay (CellTiter-Glo), LNCaP; format: cell-based, human; details: 48 h exposure, read-out: IC50 against prostate cancer cell line LNCaP
Description: as §1, §2

[4] = system: Hi-Myc prostate cancer cell line; test: Antiproliferative cell assay (CellTiter-Glo), Hi-Myc; format: cell-based; details: Hi-Myc (mouse), 48 h exposure, read-out: IC50 against prostate cancer cell line HiMyc
Description: as §1, §2

[5] = system: DU145 prostate cancer cell line; test: Antiproliferative cell assay (CellTiter-Glo), DU145; format: cell-based, human; details: read-out: IC50 against prostate cancer cell line DU145
Description: as §1, §2

[6] = system: LNCaP-AR prostate cancer cell line; test: Antiproliferative cell assay (CellTiter-Glo), LNCaP-AR; format: cell-based, human; details: 48 h exposure, read-out: IC50 against prostate cancer cell line LNCap-AR
Description: as §1, §2

[7] = system: human pancreatic cancer cell line ASPC-1; test: Antiproliferative activity against pancreatic cancer cells (CellTiter-Glo), ASPC-1; format: cell-based; details: 100 μg/mL, 48 hrs
Description: (§3) EA and EA-metabolites (gallic and gallagic acids, urolithin B and methylated-urolithin A) were evaluated for antiproliferative activity against the human pancreatic cancer cell lines ASPC-1 and BXPC-3. The cells were grown to a concentration of 10,000 cells per well; and were then resuspended in medium containing the vehicle control or the indicated compound: Ellagic acid, urolithin A, methyl urolithin A, or urolithin B, at a concentration of 100 μg/mL. The cells were incubated for 48 hrs, and the viability assayed byCellTiter-Glo® Luminescent Cell Viability Assay (Technical Bulletin #288, Promega Corp., Madison, Wis.).

[8] = system: 22Rv1 cells; test: In vitro proliferation (tritiated thymidine uptake), 22RV1; format: cell-based; details: mean ± SE, read-out: IC50 on growth of human prostate cancer cells
Text: (§4) DU145 and LNCaP cells (ATCC, Rockville, Md.), 22Rv1 cells (gift from Pinchas Cohen), and LNCAP-AR cells (gift from Charles Sawyers) were maintained below passage 20 and used in experiments during the linear phase of growth as previously described (Seeram et al. J Nutr Biochem. 16 (2005), p. 360). EA was purchased from Sigma-Aldrich (St. Louis, Mo.). UA (3,8-dihydroxy-6H-benzo[b,d]chromen-6-one), methylated UA and dimethylated UA were synthesized in our laboratory as previously described (Ghosal et al. J Chem Res Synop. 11 (1989), p. 350). Compounds were dissolved in dimethylsulfoxide (DMSO) then added to media to achieve the final desired test concentration with a final DMSO concentration not exceeding 0.1%. Proliferation was determined by tritiated thymidine uptake as previously described. All assays were performed in triplicate.
(§5) For the cell proliferation assays, data are expressed as a percentage of untreated cells (i.e. treatment value-blank/vehicle value-blank), mean±SE for at least three separate experiments. Data were analyzed by either student's t-test or one-way ANOVA followed by Dunnett's Multiple Range test (α=0.05) with Graph Pad Prism 3.0 (Graph Pad Software Inc.) as appropriate.

[9] = system: LNCaP-AR cells; test: In vitro proliferation (tritiated thymidine uptake), LNCaP-AR; format: cell-based; details: mean ± SE, read-out: IC50 on growth of human prostate cancer cells
Text: as §4, §5

[10] = system: human pancreatic cancer cell line BXPC-3; test: Antiproliferative activity against pancreatic cancer cells (CellTiter-Glo), BXPC-3; format: cell-based; details: 100 μg/mL, 48 hrs
Description: as §3

[11] = system: DU145 cells; test: In vitro proliferation (tritiated thymidine uptake), DU145; format: cell-based; details: read-out: IC50 on growth of human prostate cancer cells
Text: as §4, §5

[12] = system: LNCaP cells; test: In vitro proliferation (tritiated thymidine uptake), LNCaP; format: cell-based; details: mean ± SE, read-out: IC50 on growth of human prostate cancer cells
Text: as §4, §5

[13] = system: human colon cancer cell line HCT-116; test: Antiproliferative activity against colon cancer cells (CellTiter-Glo); format: cell-based; details: 100 μg/mL, 48 hrs
Description: as §3, with “colon” for “pancreatic”, “line HCT-116.” for “lines ASPC-1 and BXPC-3.”, “well in a 96 well format;” for “well;”, “containing” for “containing the”, “by the CellTiter-Glo®” for “byCellTiter-Glo®”

[14] = Tissue disposition study after UA administration; format: in vivo, C57/B6 mice; details: for UA and UA-conjugate levels in plasma at 24 h / UA and UA-conjugate levels in tissues at 24 h: below detectable limit
Description: Pomegranate extract (PE) derived from the skin of pomegranate fruit (Punica granatum L., Paramount Farms, Lost Hills, Calif.) was standardized to 37% ETs (as punicalagins) and 3.5% free EA as reported (Seeram et al. Sep Purific Tech. 41 (2005), p. 49). PE was administered to animals in doses based on the amount of ETs in a single serving of pomegranate juice (240 ml of single strength juice, 80 mg of ETs). The equivalent dose that would be administered to a 70 kg human was calculated for a mouse of 25 g body weight to be 0.03 mg ETs. Ten times (10×) this dose was used in the animal studies (0.8 mg PE per dose per animal) to enhance our ability to detect phytochemical distribution. For studies administering UA, doses were calculated assuming complete conversion of ETs to UA. […] Both PE and UA were suspended in 50 μL PBS or 10% aqueous glucose solution for intraperitoneal or oral administration, respectively.
Male C57/B6 mice (n=156 mice, retired breeders, 7 months old, 25-30 g) from Charles River laboratories (Wilmington, Mass.) were fed AlN 93G diets and water ad libitum, and fasted 6 h prior to dosing. Mice were dosed orally or intraperitoneally with either PE (0.8 mg/mouse/dose; n=72), UA (0.3 mg/mouse/dose; n=72) or vehicle control (50 μL; n=12 mice). Blood samples were collected at 0.5, 1, 2, 4, 6 and 24 h after dosing and prostate, liver, kidney, lung, colon, intestine and brain tissues were collected and stored at −80° C. Harvested tissue (200 mg) was homogenized in methanol with 0.1% acetic acid (1 mL) and centrifuged at 3000×g for 10 min. The supernatant was dried on a SpeedVac then reconstituted with 200 μL of the HPLC mobile phase for a final injection volume of 20 μL. Xenograft tissue homogenates required acid hydrolysis prior to chromatography as reported (Gu et al. J Agric Food Chem. 53 (2005), p. 6858). HPLC-UV and HPLC-MS/MS analyses were carried out on a Waters Alliance 2690 system (Waters Corp., Milford, Mass.) an LCQ Classic Finnigan system (ThermoFinnigan, San Jose, Calif.), respectively, as previously described (Seeram et al. Clin Chim Acta. 348 (2004), p. 63). Linear calibration curves were constructed using a spiked internal standard method with EA or UA using plasma or liver tissues collected from control mice as described previously (Seeram et al. Clin Chim Acta. 348 (2004), p. 63). Accuracy values ranged from 91-108% for the quality control samples containing the EA or UA standard.

[15] = Homo sapiens, DU-145, 48 h exposure
[16] = UA 0.3 mg/mouse/dose intraperitoneal

SMILES | IC50 [2] [µM] | IC50 [4] [µM] | IC50 ([1]; Homo sapiens) [µM] | IC50 ([2]; Homo sapiens, 22Rv1, 48 h) [µM] | IC50 ([3]; Homo sapiens) [µM] | IC50 [5, 15] [µM] | IC50 ([6]; Homo sapiens) [µM] | IC50 [8] [µM] | IC50 ([11]; mean ± SE) [µM] | IC50 [12] [µM] | anti-proliferative activity, rank order [7] | anti-proliferative activity, rank order [10] | anti-proliferative activity, rank order [13] | further results
O=C(O)c1cc(O)c(O)c(O)c1-c1c(O)c(O)c2oc(=O)c3c(-c4c(C(=O)O)cc(O)c(O)c4O)c(O)c(O)c4oc(=O)c1c2c43 [Gallagic acid] | 166 | 82.7 |  |  |  |  |  |  |  |  |  |  |  | IC50 [1]: 83.6 µM; IC50 [3]: 71.4 µM; IC50 ([5]; 48 h exposure): 198 µM; IC50 [6]: 82.4 µM
O=C(O)c1cc(O)c(O)c(O)c1 [Gallic acid] | 18.5 | 73.5 | 111 | 18.6 | 32.3 | 29.4 | 29.2 |  |  |  |  |  |  | 
O=c1oc2c(O)c(O)cc3c(=O)oc4c(O)c(O)cc1c4c23 [Ellagic acid, reference compound] |  | 1.7 | 83.6 | 41.7 | 20.5 | 96 | 82.6 |  |  |  | urolithin A is the most active, then ellagic acid, urolithin B and methyl urolithin A | urolithin A is the most active, then ellagic acid, urolithin B and methyl urolithin A | urolithin A is the most active, then ellagic acid, urolithin B and methyl urolithin A | IC50 ([8]; Homo sapiens): 109 ± 16.6 µM; IC50 ([9]; Homo sapiens): 78.7 ± 3.2 µM; IC50 ([11]; Homo sapiens, DU-145, mean ± SE): 74.3 ± 5.2 µM; IC50 ([12]; Homo sapiens): 62.4 ± 4.2 µM

Second part, led by results:

IC50 [2] [µM] | IC50 [4] [µM] | IC50 ([1]; Homo sapiens) [µM] | IC50 ([2]; Homo sapiens, 22Rv1, 48 h) [µM] | IC50 ([3]; Homo sapiens) [µM] | IC50 [5, 15] [µM] | IC50 ([6]; Homo sapiens) [µM] | IC50 [8] [µM] | IC50 ([11]; mean ± SE) [µM] | IC50 [12] [µM] | SMILES | anti-proliferative activity, rank order [7] | anti-proliferative activity, rank order [10] | anti-proliferative activity, rank order [13] | further results
 | 586 | 526 | 127 | 206 | 466 | 151 |  |  |  | COc1ccc2c(c1)c(=O)oc1cc(O)ccc12 [8-methyl-Urolithin A, 3-hydroxy-8-methoxyl-6H-dibenzo[b,d]pyran-6-one] | urolithin A is the most active, then ellagic acid, urolithin B and methyl urolithin A | urolithin A is the most active, then ellagic acid, urolithin B and methyl urolithin A | urolithin A is the most active, then ellagic acid, urolithin B and methyl urolithin A | 
 |  |  |  |  |  |  | 47.8 ± 3.2 | 49.8 ± 3.9 | 31.3 ± 0.5 | O=c1oc2cc(O)ccc2c2ccc(O)cc12 [UA, 3,8-dihydroxy-6H-benzo[b,d]chromen-6-one] | most active | most active | most active | UA and UA-conjugate levels in plasma at 24 h [14, 16]: < 3 ng/mL; UA and UA-conjugate levels in tissues at 24 h [14, 16]: < 5 ng/g; UA and UA-conjugate levels in plasma at 24 h ([14]; UA 0.3 mg/mouse/dose oral): < 3 ng/mL; UA and UA-conjugate levels in tissues at 24 h ([14]; UA 0.3 mg/mouse/dose oral): < 5 ng/g; time of peak concentration in prostate, colon and intestine ([14]; UA intraperitoneally): 2 h; tissue uptake ([14]; UA orally, prostate followed by small intestine and colon): highest concentrations in the prostate gland; IC50 [9]: 43.3 ± 2.8 µM
 |  |  |  |  |  |  | 85 ± 8.6 | 70.7 ± 13 | 71.4 ± 13.5 | COc1ccc2c(c1)oc(=O)c1cc(OC)ccc12 [dmUA] |  |  |  | 

Reference: patent US8648112B2, “Therapeutic uses of urolithins” (The Regents of the University of California, priority 2006, dated 2014)
